Data: patent US11685766B2, “14-3-3 targeting peptides for cancer treatment” (Creighton University, priority 2019, dated 2023)
Peptide text beside a SMILES is read from it.

Target: T1, 14-3-3ε heterodimerization (Homo sapiens, UniProt P62258)
T1 construct: endogenous in cells; host or cells: SCC12B.2
T1 sequence (P62258 1-255): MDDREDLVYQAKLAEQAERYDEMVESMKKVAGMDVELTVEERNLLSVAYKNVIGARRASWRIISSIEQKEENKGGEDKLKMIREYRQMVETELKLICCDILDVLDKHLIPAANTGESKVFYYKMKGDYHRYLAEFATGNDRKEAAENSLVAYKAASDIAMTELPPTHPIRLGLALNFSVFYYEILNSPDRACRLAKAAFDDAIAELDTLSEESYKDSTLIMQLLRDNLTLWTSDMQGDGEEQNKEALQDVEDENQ
Assay: Co-immunoprecipitation / immunoblot of 14-3-3ε heterodimerization
Assay type: cell-based
Conditions: SCC12B.2 cells, 20 μM, 48 hours, vs vehicle
Protocol: Co-Immunoprecipitation was performed using a Dynabeads Protein G Immunoprecipitation kit (Life Technologies, Carlsbad, Calif., USA). Beads were coupled to antibodies targeting 14-3-3ε (Fisher Scientific, Waltham, Mass., USA) or Akt (Thermo Fisher) at a ratio of 7 μg of antibody for every 1 mg of beads according to the manufacturers protocol. SCC12B.2 cells were treated with vehicle (20 mM Tris buffer, pH 7.5) or fresh ES1P2 targeting peptide daily at the IC50 concentration for 48 hours in Opti-MEM I Reduced Serum Medium (Invitrogen) and collected by trypsinization. […]
Protein was collected by either standard whole-cell lysis using ice-cold radioimmunoprecipitation assay (RIPA) lysis buffer supplemented with protease (Roche Life Scientific) and phosphatase inhibitors (NaF, Na3VO4) or by nuclear/cytosolic extraction using the NE-PER Nuclear and Cytoplasmic Protein Extraction Reagent Kit according to the manufacturer's protocol (Pierce, Rockford, Ill., USA). […] Protein concentration was assessed with the Bradford assay. […] Bands were detected using horseradish peroxidase-conjugated secondary antibodies (IgG mouse or rabbit) (Cell Signaling) and visualized using western lightning plus chemiluminescent reagent (MidSci, Valley Park, Mo., USA) and signal read on a Chemidoc XRS Molecular Imager (Bio-Rad Laboratories, Hercules, Calif., USA).

14-3-3ε heterodimerization: reduces 14-3 3ε heterodimerization
Structure (SMILES): NCCCC[C@H](NC(=O)[C@H](Cc1c[nH]c2ccccc12)NC(=O)[C@H](Cc1ccc(O)cc1)NC(=O)[C@@H](N)Cc1c[nH]c2ccccc12)C(N)=O [ES1P2, Trp-Tyr-Trp-Lys-NH2] (H-WYWK-NH2)
